According to ChEMBL document CHEMBL1151510, “Inhibition of matrix metalloproteinases by P1 substituted N-carboxyalkyl dipeptides” (Bioorg Med Chem Lett, 1996):

Key:
Interstitial collagenase [1] = target: T1, Interstitial collagenase (Homo sapiens, UniProt P03956); assay: Inhibition of matrix metalloprotease -1.
T1 sequence (P03956 whole entry): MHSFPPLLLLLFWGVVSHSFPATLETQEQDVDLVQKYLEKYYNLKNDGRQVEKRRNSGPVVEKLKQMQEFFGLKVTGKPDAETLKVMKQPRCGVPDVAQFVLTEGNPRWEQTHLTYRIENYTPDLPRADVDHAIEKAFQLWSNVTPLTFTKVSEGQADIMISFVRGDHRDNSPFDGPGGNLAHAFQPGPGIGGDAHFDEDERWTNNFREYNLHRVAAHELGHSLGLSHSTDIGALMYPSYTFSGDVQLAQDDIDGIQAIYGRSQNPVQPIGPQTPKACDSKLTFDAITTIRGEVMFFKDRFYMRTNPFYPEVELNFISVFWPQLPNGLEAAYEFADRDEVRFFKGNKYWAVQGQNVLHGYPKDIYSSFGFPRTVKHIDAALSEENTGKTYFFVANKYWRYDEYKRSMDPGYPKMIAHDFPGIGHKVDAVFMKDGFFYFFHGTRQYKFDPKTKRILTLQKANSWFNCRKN

[2] = target: T2, 72 kDa type IV collagenase (Homo sapiens, UniProt P08253); assay: Inhibition of MMP-2.
Target sequence in this assay (P08253 whole entry): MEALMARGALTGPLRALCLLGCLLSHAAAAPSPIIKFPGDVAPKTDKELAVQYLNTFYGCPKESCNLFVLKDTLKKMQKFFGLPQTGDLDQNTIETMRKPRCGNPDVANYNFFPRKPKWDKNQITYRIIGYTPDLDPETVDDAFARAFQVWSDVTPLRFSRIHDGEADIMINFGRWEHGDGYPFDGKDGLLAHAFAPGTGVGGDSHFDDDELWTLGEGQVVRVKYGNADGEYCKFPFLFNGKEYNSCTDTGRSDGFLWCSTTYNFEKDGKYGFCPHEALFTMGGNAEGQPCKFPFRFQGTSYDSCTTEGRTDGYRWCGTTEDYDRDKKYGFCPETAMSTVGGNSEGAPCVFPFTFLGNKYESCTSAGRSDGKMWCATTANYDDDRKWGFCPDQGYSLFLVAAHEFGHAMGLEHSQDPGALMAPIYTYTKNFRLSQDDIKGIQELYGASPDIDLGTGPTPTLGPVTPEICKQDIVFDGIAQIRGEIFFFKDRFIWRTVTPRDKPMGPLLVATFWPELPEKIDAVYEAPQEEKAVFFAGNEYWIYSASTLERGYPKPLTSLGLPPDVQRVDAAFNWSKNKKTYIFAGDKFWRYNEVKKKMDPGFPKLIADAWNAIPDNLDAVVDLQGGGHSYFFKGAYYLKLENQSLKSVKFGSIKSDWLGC

Stromelysin-1 [3] = target: T3, Stromelysin-1 (Homo sapiens, UniProt P08254)
T3 sequence (P08254 whole entry): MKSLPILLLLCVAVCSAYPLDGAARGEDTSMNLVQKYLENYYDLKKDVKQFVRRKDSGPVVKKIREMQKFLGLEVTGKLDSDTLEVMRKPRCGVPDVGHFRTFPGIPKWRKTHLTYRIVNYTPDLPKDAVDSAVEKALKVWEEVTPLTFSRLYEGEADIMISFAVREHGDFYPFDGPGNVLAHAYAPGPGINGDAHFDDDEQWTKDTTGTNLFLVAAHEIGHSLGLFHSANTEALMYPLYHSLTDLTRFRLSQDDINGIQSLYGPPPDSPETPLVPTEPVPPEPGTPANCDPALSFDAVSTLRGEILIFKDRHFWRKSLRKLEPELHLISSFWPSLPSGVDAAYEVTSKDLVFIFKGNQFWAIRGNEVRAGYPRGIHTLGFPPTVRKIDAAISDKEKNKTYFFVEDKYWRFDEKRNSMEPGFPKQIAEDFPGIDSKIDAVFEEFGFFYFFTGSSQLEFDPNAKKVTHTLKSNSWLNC

[4] = target: T4, Interstitial collagenase (Homo sapiens) (UniProt P03956); assay: Inhibition of matrix metalloprotease-1 at 10 uM
T4 sequence (whole entry): T1 sequence (P03956 whole entry)

[5] = target: T2, 72 kDa type IV collagenase; assay: Inhibition of matrix metalloprotease-2 at 1 uM.
Target sequence in this assay (P08253 110-660 limits assumed): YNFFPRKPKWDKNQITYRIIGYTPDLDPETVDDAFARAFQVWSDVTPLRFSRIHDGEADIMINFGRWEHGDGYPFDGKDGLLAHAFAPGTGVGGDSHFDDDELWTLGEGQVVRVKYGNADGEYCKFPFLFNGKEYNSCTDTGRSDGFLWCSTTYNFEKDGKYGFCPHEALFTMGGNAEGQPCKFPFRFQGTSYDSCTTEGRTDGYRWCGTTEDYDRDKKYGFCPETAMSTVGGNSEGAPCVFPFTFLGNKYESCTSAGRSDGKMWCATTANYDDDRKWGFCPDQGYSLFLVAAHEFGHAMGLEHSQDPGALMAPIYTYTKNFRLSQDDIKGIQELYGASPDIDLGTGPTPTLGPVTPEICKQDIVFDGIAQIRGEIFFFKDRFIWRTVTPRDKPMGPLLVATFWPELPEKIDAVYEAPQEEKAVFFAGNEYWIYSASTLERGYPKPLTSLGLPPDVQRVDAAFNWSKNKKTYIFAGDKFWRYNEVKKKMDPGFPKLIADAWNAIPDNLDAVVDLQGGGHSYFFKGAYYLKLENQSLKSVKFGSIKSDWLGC

[6] = target: T2, 72 kDa type IV collagenase; assay: Inhibition of matrix metalloprotease-2 at 1 uM
Target sequence in this assay (P08253 110-660 limits assumed): as above

Interstitial collagenase [7] = target: T1, Interstitial collagenase; assay: Inhibition of matrix metalloprotease -1
[8] = target: T2, 72 kDa type IV collagenase; assay: Inhibition of matrix metalloprotease-2
Target sequence in this assay (P08253 whole entry): as the sequence (P08253 whole entry) above

Stromelysin-1 [9] = target: T3, Stromelysin-1; assay: Inhibition of matrix metalloprotease -3

| SMILES | Ki (Interstitial collagenase [1]) | Ki [2] | Ki (Stromelysin-1 [3]) | inhibition [5] | further results |
| --- | --- | --- | --- | --- | --- |
| CC(C)C[C@H](NC(=O)[C@H](CCc1ccccc1)N[C@H](CCN1C(=O)c2ccccc2C1=O)C(=O)O)C(=O)Nc1ccccc1 | 2090 nM | 20 nM | 33 nM | – | – |
| CC(C)C[C@H](NC(=O)[C@H](CCc1ccccc1)N[C@H](CCCNC(=O)Cc1ccccc1)C(=O)O)C(=O)Nc1ccccc1 | 870 nM | 60 nM | 10 nM | – | – |
| CC(C)C[C@H](NC(=O)[C@H](CCc1ccccc1)N[C@H](CCCCN1Cc2ccccc2C1=O)C(=O)O)C(=O)Nc1ccccc1 | 1600 nM | 110 nM | 12 nM | – | – |
| CC(C)C[C@H](NC(=O)[C@H](CCc1ccccc1)N[C@H](CCNC(=O)CCc1ccccc1)C(=O)O)C(=O)Nc1ccccc1 | 3330 nM | – | 110 nM | 41% | – |
| CC(C)C[C@H](NC(=O)[C@H](CCc1ccccc1)N[C@H](CCNC(=O)c1ccccc1)C(=O)O)C(=O)Nc1ccccc1 | 1090 nM | – | 120 nM | – | inhibition [6]: 72% |
| CC(C)C[C@H](NC(=O)[C@H](CCc1ccccc1)N[C@H](CCCCNC(=O)c1ccccc1)C(=O)O)C(=O)Nc1ccccc1 | 5800 nM | 120 nM | 32 nM | – | – |
| CC[C@@H](N[C@@H](CCc1ccccc1)C(=O)N[C@@H](CC(C)C)C(=O)Nc1ccccc1)C(=O)O | 1800 nM | 1100 nM | 350 nM | – | – |
| CC(C)C[C@H](NC(=O)[C@H](CCc1ccccc1)N[C@H](CCCN1C(=O)c2ccccc2C1=O)C(=O)O)C(=O)Nc1ccccc1 | 3400 nM | 570 nM | 140 nM | – | – |
| CNC(=O)[C@H](Cc1ccccc1)NC(=O)[C@H](CC(C)C)N[C@H](CCN1C(=O)c2cc3ccccc3cc2C1=O)C(=O)O | – | – | – | – | Ki (Interstitial collagenase [7]): 5 nM; Ki [8]: 91 nM; Ki (Stromelysin-1 [9]): 20 nM |
| CC(C)C[C@H](NC(=O)[C@H](CCc1ccccc1)N[C@H](CCCCN1C(=O)c2ccccc2C1=O)C(=O)O)C(=O)Nc1ccccc1 | 720 nM | 86 nM | 8 nM | – | – |
| CC(C)C[C@H](NC(=O)[C@H](CCc1ccccc1)N[C@H](CCCCNC(=O)CCc1ccccc1)C(=O)O)C(=O)Nc1ccccc1 | 13000 nM | – | 190 nM | 49% | – |

Further molecules by falling Ki (Stromelysin-1 [3]), results first:

| Ki (Interstitial collagenase [1]) | Ki [2] | Ki (Stromelysin-1 [3]) | inhibition [5] | SMILES | further results |
| --- | --- | --- | --- | --- | --- |
| – | 2300 nM | 530 nM | – | CCCCCC[C@@H](N[C@@H](CCc1ccccc1)C(=O)N[C@@H](CC(C)C)C(=O)Nc1ccccc1)C(=O)O | inhibition [4]: 43% |
| 6800 nM | 1100 nM | 320 nM | – | CCCC[C@@H](N[C@@H](CCc1ccccc1)C(=O)N[C@@H](CC(C)C)C(=O)Nc1ccccc1)C(=O)O | – |
| 4410 nM | 770 nM | 270 nM | – | CC(C)C[C@H](NC(=O)[C@H](CCc1ccccc1)N[C@H](CCNC(=O)CCCc1ccccc1)C(=O)O)C(=O)Nc1ccccc1 | – |
| – | – | 270 nM | 50% | CC(C)C[C@H](NC(=O)[C@H](CCc1ccccc1)N[C@H](CCCNC(=O)c1ccccc1)C(=O)O)C(=O)Nc1ccccc1 | inhibition [4]: 50% |
| 1100 nM | – | 180 nM | 91% | CC(=O)N1CCCC1C(=O)NCCCC[C@@H](N[C@@H](CCc1ccccc1)C(=O)N[C@@H](CC(C)C)C(=O)Nc1ccccc1)C(=O)O (stereo partly drawn) | – |
| 1790 nM | – | 130 nM | – | CC(C)C[C@H](NC(=O)[C@H](CCc1ccccc1)N[C@H](CCNC(=O)Cc1ccccc1)C(=O)O)C(=O)Nc1ccccc1 | – |
| 72 nM | – | 120 nM | 64% | CC(C)C[C@H](NC(=O)[C@H](CCc1ccccc1)N[C@H](CCCCc1ccccc1)C(=O)O)C(=O)Nc1ccccc1 | – |
| – | – | 120 nM | 70% | CC(C)C[C@H](NC(=O)[C@H](CCc1ccccc1)N[C@H](CCCNC(=O)CCCc1ccccc1)C(=O)O)C(=O)Nc1ccccc1 | inhibition [4]: 36% |
| 5810 nM | 350 nM | 47 nM | – | CC(C)C[C@H](NC(=O)[C@H](CCc1ccccc1)N[C@H](CCCCCNC(=O)Cc1ccccc1)C(=O)O)C(=O)Nc1ccccc1 | – |
| 7200 nM | 70 nM | 28 nM | – | CC(C)C[C@H](NC(=O)[C@H](CCc1ccccc1)N[C@H](CCCCNC(=O)Cc1ccccc1)C(=O)O)C(=O)Nc1ccccc1 | – |
| 3890 nM | 120 nM | 20 nM | – | CC(C)C[C@H](NC(=O)[C@H](CCc1ccccc1)N[C@H](CCCCCNC(=O)c1ccccc1)C(=O)O)C(=O)Nc1ccccc1 | – |
| 2200 nM | – | 9.5 nM | 87% | CC(C)C[C@H](NC(=O)[C@H](CCc1ccccc1)N[C@H](CCCNC(=O)CCc1ccccc1)C(=O)O)C(=O)Nc1ccccc1 | – |
